Where “and” joins values, the source holds several entries; their conditions need not be identical. Identical values can stand only once.
Assays:
mGlu1(N264H) mutant = molecular target: T1, mGlu1(N264H) mutant (Rattus norvegicus, UniProt P23385, N264H); experiment: Fura-2 Ca2+ imaging in HEK293 cells expressing mGlu1(N264H); format: cell-based
T1 construct: expressed in transfected cells; host or cells: HEK293

[1] = tested on: GFP-positive Purkinje cells infected with AAV-L7-mGlu1^WT; experiment: chemLTD recording in GFP-positive Purkinje cells, slices infected with AAV-L7-mGlu1^WT; format: cell-based, mouse; settings: for PF-EPSC amplitude normalized to time 0, individual Purkinje cells / PF-EPSC amplitude normalized to time 0, mean of cells: AAV-L7-mGlu1WT

T1 sequence (P23385 19-1199 N264H): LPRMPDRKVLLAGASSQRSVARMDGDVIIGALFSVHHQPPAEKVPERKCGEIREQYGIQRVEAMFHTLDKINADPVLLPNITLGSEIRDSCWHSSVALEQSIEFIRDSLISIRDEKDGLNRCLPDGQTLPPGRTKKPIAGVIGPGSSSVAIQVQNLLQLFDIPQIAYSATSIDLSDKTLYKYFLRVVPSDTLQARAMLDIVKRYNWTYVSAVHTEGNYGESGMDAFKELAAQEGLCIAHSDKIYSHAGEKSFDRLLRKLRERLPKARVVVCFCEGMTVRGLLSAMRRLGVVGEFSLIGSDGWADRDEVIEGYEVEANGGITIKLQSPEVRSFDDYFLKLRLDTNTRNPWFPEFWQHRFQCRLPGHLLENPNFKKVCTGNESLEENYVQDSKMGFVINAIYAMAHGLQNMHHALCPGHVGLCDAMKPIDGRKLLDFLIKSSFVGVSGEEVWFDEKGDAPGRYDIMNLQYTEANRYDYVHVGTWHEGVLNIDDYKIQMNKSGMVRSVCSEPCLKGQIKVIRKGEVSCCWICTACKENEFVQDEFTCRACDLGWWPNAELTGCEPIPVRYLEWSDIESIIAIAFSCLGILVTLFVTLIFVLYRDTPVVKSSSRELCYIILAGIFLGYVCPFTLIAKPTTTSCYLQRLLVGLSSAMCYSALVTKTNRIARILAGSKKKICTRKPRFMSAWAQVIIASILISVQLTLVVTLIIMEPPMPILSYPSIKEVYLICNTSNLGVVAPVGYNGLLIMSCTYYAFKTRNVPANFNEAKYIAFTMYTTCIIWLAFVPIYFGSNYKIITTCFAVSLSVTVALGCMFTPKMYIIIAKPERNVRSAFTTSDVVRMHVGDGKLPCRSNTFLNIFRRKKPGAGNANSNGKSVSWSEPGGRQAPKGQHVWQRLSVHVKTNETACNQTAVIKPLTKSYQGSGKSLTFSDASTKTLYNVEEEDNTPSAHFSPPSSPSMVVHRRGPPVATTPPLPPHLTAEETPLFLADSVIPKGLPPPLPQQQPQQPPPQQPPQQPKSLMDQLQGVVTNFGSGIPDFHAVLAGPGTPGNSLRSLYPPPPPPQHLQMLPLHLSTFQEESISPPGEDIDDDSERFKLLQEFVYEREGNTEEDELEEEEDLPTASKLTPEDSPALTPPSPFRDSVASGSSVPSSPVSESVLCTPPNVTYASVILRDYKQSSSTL

Cc1ccnc(-c2cc(COCCCS(=O)(=O)[O-])ccn2)c1.[Cl][Pd][Cl].[Na+] [Pd(sulfo-bpy)]
Ca2+ response, concentration dependence (Fig.4f) (mGlu1(N264H) mutant; 0.01 µM Pd complex): 0.001442 | Ca2+ response, concentration dependence (Fig.4f) (mGlu1(N264H) mutant; 0.03 µM Pd complex): -0.01191 | Ca2+ response, concentration dependence (Fig.4f) (mGlu1(N264H) mutant; 0.1 µM Pd complex): -0.00118 | Ca2+ response, concentration dependence (Fig.4f) (mGlu1(N264H) mutant; 0.3 µM Pd complex): 0.1279 | Ca2+ response, concentration dependence (Fig.4f) (mGlu1(N264H) mutant; 1 µM Pd complex): 0.241 | Ca2+ response, concentration dependence (Fig.4f) (mGlu1(N264H) mutant; 3 µM Pd complex): 0.3078 | Receptor activation (Ca2+ response, Δratio) (mGlu1(N264H) mutant; 3 μM Pd(bpy) derivative): successfully activated | Ca2+ response, concentration dependence (Fig.4f) (mGlu1(N264H) mutant; 10 µM Pd complex): 0.4466 | Ca2+ response, concentration dependence (Fig.4f) (mGlu1(N264H) mutant; 30 µM Pd complex): 0.3481 | EC50 (mGlu1(N264H) mutant; HEK293 cells, Fura-2, read-out: EC50, Ca2+ response (Δratio)): 620 nM | Ca2+ response to Pd complex, individual cells #1-#20 (Fig.4e) (mGlu1(N264H) mutant; single-cell values): 0.8899 and 0.2578 and 0.9132 and -0.001662 and 0.6326 and 0.4158 and 0.6574 and 1.139 and -0.004669 and -0.01576 and 0.5967 and 0.1275 and -0.001162 and 0.09754 and -0.01851 and 1.312 and 1.093 and 0.7225 and 0.4683 and -0.003462 | chemLTD: normalized PF-EPSC amplitude ([1]; 1 μM Pd(sulfo-bpy), t = 31−35 min): 88 ± 7% | PF-EPSC amplitude normalized to time 0, individual Purkinje cells ([1]; Time 11 min): 0.5479 and 0.8947 and 0.9287 and 0.866 and 0.7568 and 0.3484 and 0.5317 | PF-EPSC amplitude normalized to time 0, mean of cells ([1]; Time 11 min): 0.6963 | PF-EPSC amplitude normalized to time 0, individual Purkinje cells ([1]; Time 12 min): 0.6486 and 0.7811 and 0.7919 and 0.9348 and 0.7682 and 0.482 and 0.6188 | PF-EPSC amplitude normalized to time 0, mean of cells ([1]; Time 12 min): 0.7179 | PF-EPSC amplitude normalized to time 0, individual Purkinje cells ([1]; Time 13 min): 0.8009 and 0.7991 and 0.7966 and 0.9028 and 0.809 and 0.4767 and 0.682 | PF-EPSC amplitude normalized to time 0, mean of cells ([1]; Time 13 min): 0.7525 | PF-EPSC amplitude normalized to time 0, individual Purkinje cells ([1]; Time 14 min): 0.8571 and 0.8119 and 0.8301 and 0.9359 and 0.8385 and 0.4849 and 0.6984 | PF-EPSC amplitude normalized to time 0, mean of cells ([1]; Time 14 min): 0.7795 | PF-EPSC amplitude normalized to time 0, individual Purkinje cells ([1]; Time 15 min): 0.8756 and 0.8988 and 0.8051 and 0.8932 and 0.8452 and 0.5102 and 0.7309 | PF-EPSC amplitude normalized to time 0, mean of cells ([1]; Time 15 min): 0.7942 | PF-EPSC amplitude normalized to time 0, individual Purkinje cells ([1]; Time 16 min): 0.9159 and 0.9928 and 0.8396 and 0.8655 and 0.841 and 0.5112 and 0.7755 | PF-EPSC amplitude normalized to time 0, mean of cells ([1]; Time 16 min): 0.8202 | PF-EPSC amplitude normalized to time 0, individual Purkinje cells ([1]; Time 17 min): 0.9971 and 1.069 and 0.8238 and 0.8887 and 0.8439 and 0.5087 and 0.7457 | PF-EPSC amplitude normalized to time 0, mean of cells ([1]; Time 17 min): 0.8396 | PF-EPSC amplitude normalized to time 0, individual Purkinje cells ([1]; Time 18 min): 1.0288 and 1.119 and 0.837 and 0.8899 and 0.9043 and 0.5561 and 0.7949 | PF-EPSC amplitude normalized to time 0, mean of cells ([1]; Time 18 min): 0.8757 | PF-EPSC amplitude normalized to time 0, individual Purkinje cells ([1]; Time 19 min): 0.8877 and 1.0703 and 0.9503 and 0.893 and 0.9667 and 0.5652 and 0.7658 | PF-EPSC amplitude normalized to time 0, mean of cells ([1]; Time 19 min): 0.8713 | PF-EPSC amplitude normalized to time 0, individual Purkinje cells ([1]; Time 20 min): 1.078 and 1.198 and 0.844 and 0.865 and 1.008 and 0.5754 and 0.7572 | PF-EPSC amplitude normalized to time 0, mean of cells ([1]; Time 20 min): 0.9036 | PF-EPSC amplitude normalized to time 0, individual Purkinje cells ([1]; Time 21 min): 0.9655 and 1.126 and 0.8812 and 0.8773 and 1.052 and 0.5885 and 0.7582 | PF-EPSC amplitude normalized to time 0, mean of cells ([1]; Time 21 min): 0.8926 | PF-EPSC amplitude normalized to time 0, individual Purkinje cells ([1]; Time 22 min): 1.0065 and 1.121 and 0.9135 and 0.8951 and 1.02 and 0.5416 and 0.8122 | PF-EPSC amplitude normalized to time 0, mean of cells ([1]; Time 22 min): 0.9014 | PF-EPSC amplitude normalized to time 0, individual Purkinje cells ([1]; Time 23 min): 1.013 and 1.096 and 0.8837 and 0.8809 and 1.04 and 0.5776 and 0.8487 | PF-EPSC amplitude normalized to time 0, mean of cells ([1]; Time 23 min): 0.9057 | PF-EPSC amplitude normalized to time 0, individual Purkinje cells ([1]; Time 24 min): 1.0609 and 0.96 and 0.924 and 0.9136 and 1.045 and 0.5613 and 0.9388 | PF-EPSC amplitude normalized to time 0, mean of cells ([1]; Time 24 min): 0.9148 | PF-EPSC amplitude normalized to time 0, individual Purkinje cells ([1]; Time 25 min): 1.0868 and 0.9289 | PF-EPSC amplitude normalized to time 0, mean of cells ([1]; Time 25 min): 0.9269 | PF-EPSC amplitude normalized to time 0, mean of cells ([1]; Time 26 min): 0.8953 | PF-EPSC amplitude normalized to time 0, mean of cells ([1]; Time 27 min): 0.9119 | PF-EPSC amplitude normalized to time 0, mean of cells ([1]; Time 28 min): 0.9459 | PF-EPSC amplitude normalized to time 0, mean of cells ([1]; Time 29 min): 0.9165 | PF-EPSC amplitude normalized to time 0, mean of cells ([1]; Time 30 min): 0.8807 | PF-EPSC amplitude normalized to time 0, mean of cells ([1]; Time 31 min): 0.8545 | PF-EPSC amplitude normalized to time 0, mean of cells ([1]; Time 32 min): 0.8798 | PF-EPSC amplitude normalized to time 0, mean of cells ([1]; Time 33 min): 0.8652 | PF-EPSC amplitude normalized to time 0, mean of cells ([1]; Time 34 min): 0.8955 | PF-EPSC amplitude normalized to time 0, mean of cells ([1]; Time 35 min): 0.9028 | PF-EPSC amplitude normalized to time 0, mean of cells ([1]; Time 36 min): 0.8988

From publication PMC9203742 (Nature Communications, 2022)
